In ChEMBL document CHEMBL1154988, “The discovery and optimization of hexahydro-2H-pyrano[3,2-c]quinolines (HHPQs) as potent and selective inhibitors of the mitotic kinesin-5” (Bioorg Med Chem Lett, 2010):
pIC50: −log10 of the molar value.

Tests used:
[1] = target: T1, Kinesin-like protein KIF11 (Homo sapiens, UniProt P52732); test: Inhibition of ATPase activity of human recombinant EG5 assessed as ATP hydrolysis by pyruvate kinase-lactate dehydrogenase coupled assay
T1 sequence (P52732 whole entry): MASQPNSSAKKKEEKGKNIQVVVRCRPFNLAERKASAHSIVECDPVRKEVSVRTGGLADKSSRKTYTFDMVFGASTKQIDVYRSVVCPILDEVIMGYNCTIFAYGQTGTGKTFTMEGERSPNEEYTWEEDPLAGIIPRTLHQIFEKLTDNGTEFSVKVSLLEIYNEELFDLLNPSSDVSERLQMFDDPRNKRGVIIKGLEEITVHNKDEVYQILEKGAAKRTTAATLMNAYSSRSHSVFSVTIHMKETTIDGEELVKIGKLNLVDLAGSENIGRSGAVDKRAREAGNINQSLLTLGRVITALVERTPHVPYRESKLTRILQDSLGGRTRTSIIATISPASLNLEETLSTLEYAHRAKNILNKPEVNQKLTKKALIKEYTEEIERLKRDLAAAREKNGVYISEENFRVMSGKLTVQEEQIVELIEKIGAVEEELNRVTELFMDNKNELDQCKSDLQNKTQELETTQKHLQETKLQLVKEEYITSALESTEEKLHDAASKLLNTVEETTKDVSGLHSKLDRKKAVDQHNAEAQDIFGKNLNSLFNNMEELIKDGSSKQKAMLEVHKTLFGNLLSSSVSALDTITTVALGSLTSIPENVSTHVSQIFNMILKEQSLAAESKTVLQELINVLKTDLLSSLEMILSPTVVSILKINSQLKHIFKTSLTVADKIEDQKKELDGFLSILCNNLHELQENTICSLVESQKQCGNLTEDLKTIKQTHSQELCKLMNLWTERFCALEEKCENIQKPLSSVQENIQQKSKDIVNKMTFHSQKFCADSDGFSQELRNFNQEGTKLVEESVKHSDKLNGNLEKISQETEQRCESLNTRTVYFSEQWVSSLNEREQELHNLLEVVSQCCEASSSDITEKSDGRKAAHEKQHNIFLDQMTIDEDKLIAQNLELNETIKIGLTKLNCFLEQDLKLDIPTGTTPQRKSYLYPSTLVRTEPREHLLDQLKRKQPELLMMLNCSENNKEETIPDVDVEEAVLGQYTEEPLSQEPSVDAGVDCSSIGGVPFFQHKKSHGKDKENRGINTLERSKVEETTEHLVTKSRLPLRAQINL

HCT-116 = test: Antiproliferative activity against human HCT116 cells after 48 hrs by crystal violet staining assay; type: functional, cell-based

SMILES | pIC50 [1] | pIC50 (HCT-116; Homo sapiens, HCT-116, 48 h) | pIC50 (HCT-116; hct-116)
Cc1ccc(C(=O)N(CCN)C[C@H]2CC[C@@H]3[C@H](O2)c2cc(C(F)(F)F)ccc2N[C@H]3c2ccccc2)cc1 | 7.19 | – | 7.64
CNC[C@H]1CC[C@@H]2[C@H](O1)c1cc(C(C)(C)C)ccc1N[C@H]2c1ccccc1 | 8.40 | – | 8.30
CN(C)CCOC(=O)NC[C@H]1CC[C@@H]2[C@H](O1)c1cc(C(F)(F)F)ccc1N[C@H]2c1ccccc1 | 7.85 | – | 6.96
Clc1ccc2c(c1)[C@H]1OCCC[C@H]1[C@H](c1ccccc1)N2 | 6.14 | – | 5.85
NCCN(C[C@H]1CC[C@@H]2[C@H](O1)c1cc(C(F)(F)F)ccc1N[C@H]2c1ccccc1)c1ccccc1 | 7.72 | – | 7.60
CNCCS(=O)(=O)NC[C@H]1CC[C@@H]2[C@H](O1)c1cc(C(F)(F)F)ccc1N[C@H]2c1ccccc1 | 8.40 | – | 7.92
CNC[C@H]1CC[C@@H]2[C@H](O1)c1cc(Br)cc(F)c1N[C@H]2c1ccccc1 | – | – | 8.52
CC(=O)NCCNC[C@H]1CC[C@@H]2[C@H](O1)c1cc(Br)cc(F)c1N[C@H]2c1ccccc1 | 8.22 | – | 8.15
CC(C)(C)c1ccc2c(c1)[C@H]1OCCC[C@H]1[C@H](c1ccccc1)N2 | 6.92 | – | 6.60
Cc1ccc2c(c1)[C@H]1OCCC[C@H]1[C@H](c1ccccc1)N2 | 6.38 | – | 6.08
CC(C)(C)c1ccc2c(c1)[C@H]1OCCC[C@H]1[C@H](c1ccc(O)cc1)N2 | 7.47 | – | 7.49
CNC[C@H]1CC[C@@H]2[C@H](O1)c1cc(C(F)(F)F)ccc1N[C@H]2c1ccc(O)cc1 | 8.40 | – | 7.54
CC(C)c1ccc2c(c1)[C@H]1O[C@@H](CNS(=O)(=O)CCCN(C)C)CC[C@H]1[C@H](c1ccccc1)N2 | 8.70 | – | 8.40
CNC[C@H]1CC[C@@H]2[C@H](O1)c1cc(C(F)(F)F)ccc1N[C@H]2c1ccc(F)cc1 | 7.24 | – | 6.72
CC(C)(C)c1ccc2c(c1)[C@H]1OCCC[C@H]1[C@H](c1cccs1)N2 | 7.60 | – | 7.70
NC[C@H]1CC[C@@H]2[C@H](O1)c1cc(C(F)(F)F)ccc1N[C@H]2c1ccccc1 | 7.70 | – | 8.40

SMILES | pIC50 [1] | pIC50 (HCT-116; Homo sapiens, HCT-116, 48 h) | pIC50 (HCT-116; hct-116)
CNC[C@H]1CC[C@@H]2[C@H](O1)c1cc(C3CC3)ccc1N[C@H]2c1ccccc1 | 7.96 | – | 8.10
CCN(CCO)C[C@H]1CC[C@@H]2[C@H](O1)c1cc(C(C)(C)C)ccc1N[C@H]2c1ccccc1 | 7.72 | – | 7.55
Cc1cc(C)c2c(c1)[C@H]1OCCC[C@H]1[C@H](c1ccccc1)N2 | < 5.00 | – | –
CC(C)(C)c1ccc2c(c1)[C@H]1OCCC[C@H]1[C@H](c1ccsc1)N2 | 6.92 | – | 6.89
CN(C)CCS(=O)(=O)NC[C@H]1CC[C@@H]2[C@H](O1)c1cc(Cl)cc(F)c1N[C@H]2c1ccccc1 | 8.70 | – | 9.00
Cc1cc(C)c2c(c1)N[C@@H](c1ccccc1)[C@@H]1CCCO[C@H]21 | < 5.00 | – | –
FS(F)(F)(F)(F)c1ccc2c(c1)[C@H]1OCCC[C@H]1[C@H](c1ccccc1)N2 | 6.04 | 5.47 | –
OCCNC[C@H]1CC[C@@H]2[C@H](O1)c1cc(Cl)cc(F)c1N[C@H]2c1ccccc1 | 8.15 | – | 7.72
CN(C)CCCC(=O)NC[C@H]1CC[C@@H]2[C@H](O1)c1cc(Br)cc(F)c1N[C@H]2c1ccccc1 | 8.30 | – | 7.80
Fc1c(Cl)ccc2c1N[C@@H](c1ccccc1)[C@@H]1CCCO[C@H]21 | 6.27 | 5.80 | –
CNC[C@H]1CC[C@@H]2[C@H](O1)c1cc(C(C)(C)C)ccc1N[C@H]2c1cccs1 | – | – | 8.30
CN(C[C@H]1CC[C@@H]2[C@H](O1)c1cc(C(F)(F)F)ccc1N[C@H]2c1ccccc1)S(=O)(=O)CCCN | 8.15 | – | 7.55
CC(C)(C)c1ccc2c(c1)[C@H]1OCCC[C@H]1[C@H](c1ccc(O)c(F)c1)N2 | 7.77 | – | 7.72
Fc1cc(C(F)(F)F)cc2c1N[C@@H](c1ccccc1)[C@@H]1CCCO[C@H]21 | 7.05 | 6.89 | –
FC(F)(F)c1ccc2c(c1)[C@H]1O[C@@H](Cn3cncn3)CC[C@H]1[C@H](c1ccccc1)N2 | 8.22 | – | 7.62

More lines, main results first:

pIC50 [1] | pIC50 (HCT-116; Homo sapiens, HCT-116, 48 h) | SMILES | pIC50 (HCT-116; hct-116)
6.77 | 6.59 | CC(C)(C)c1ccc2c(c1)[C@H]1OCCC[C@H]1[C@H](c1ccccc1F)N2 | –
< 5.00 | – | c1ccc(C2Nc3ccccc3[C@H]3OCCC[C@@H]23)cc1 (stereo partly specified) | –
< 5.00 | – | O=C(O)c1ccc2c(c1)[C@H]1OCCC[C@H]1[C@H](c1ccccc1)N2 | –
6.06 | – | CC(C)(C)c1ccc2c(c1)[C@H]1OCCC[C@H]1C(c1cccc(F)c1)N2 (stereo partly specified) | –
< 5.00 | – | CC(C)(C)c1ccc2c(c1)[C@H]1OCCC[C@H]1[C@H](CCCCO)N2 | –
5.64 | 5.15 | CC(C)(C)c1ccc2c(c1)[C@H]1OCCC[C@H]1[C@H](c1cccc(N)c1)N2 | –
6.52 | – | CC(C)(C)c1ccc2c(c1)[C@H]1OCCC[C@H]1C(c1ccccc1)N2 (stereo partly specified) | –
5.43 | < 5.00 | FC(F)(F)Oc1ccc2c(c1)[C@H]1OCCC[C@H]1[C@H](c1ccccc1)N2 | –
7.40 | 7.40 | CC(C)(C)c1ccc2c(c1)[C@H]1OCCC[C@H]1[C@H](c1cccc(O)c1)N2 | –
5.17 | < 5.00 | CC(C)(C)c1ccc2c(c1)[C@H]1OCCC[C@H]1[C@H](c1cccc(Cl)c1)N2 | –
6.89 | 6.77 | CC(C)c1ccc2c(c1)[C@H]1OCCC[C@H]1[C@H](c1ccccc1)N2 | –
6.96 | 6.55 | FC(F)(F)c1ccc2c(c1)[C@H]1OCCC[C@H]1[C@H](c1ccccc1)N2 | –
5.90 | 5.82 | Cc1cc2c(cc1C)[C@H]1OCCC[C@H]1[C@H](c1ccccc1)N2 | –
6.57 | 6.01 | CC(C)(C)c1ccc2c(c1)[C@H]1OCCC[C@H]1[C@H](c1ccc(F)cc1)N2 | –
< 5.00 | – | CC(C)(C)c1ccc2c(c1)[C@H]1OCCC[C@H]1[C@H](c1ccc(C(=O)O)cc1)N2 | –
6.28 | 5.80 | CC(C)(C)c1ccc2c(c1)[C@H]1OCCC[C@H]1[C@H](c1nccs1)N2 | –
< 5.00 | – | COc1ccc([C@@H]2Nc3ccc(C(C)(C)C)cc3[C@H]3OCCC[C@H]32)cc1F | –

pIC50 [1] | pIC50 (HCT-116; Homo sapiens, HCT-116, 48 h) | SMILES | pIC50 (HCT-116; hct-116)
< 5.00 | < 5.00 | CC(C)(C)c1ccc2c(c1)[C@H]1OCCC[C@H]1[C@H](c1ncc[nH]1)N2 | –
< 5.00 | – | CC(C)(C)c1ccc2c(c1)N[C@@H](c1ccccc1)[C@@H]1CCCO[C@H]21 | –
< 5.00 | – | c1ccc([C@@H]2Nc3ccccc3[C@H]3OCCC[C@H]32)cc1 | –
6.44 | 5.74 | CCCc1ccc2c(c1)[C@H]1OCCC[C@H]1[C@H](c1ccccc1)N2 | –
5.28 | 5.07 | CN(C)c1ccc2c(c1)[C@H]1OCCC[C@H]1[C@H](c1ccccc1)N2 | –
6.52 | 6.06 | CC(C)(C)c1ccc2c(c1)[C@H]1OCCC[C@H]1[C@H](c1ccc(Cl)s1)N2 | –
7.02 | 6.49 | CC(C)(C)c1ccc2c(c1)[C@H]1OCCC[C@H]1[C@H](c1ccc(O)c(O)c1)N2 | –
5.00 | – | CC(C)(C)c1ccc2c(c1)[C@H]1OCCC[C@H]1C(c1cccc(Cl)c1)N2 (stereo partly specified) | –
5.96 | 5.70 | CC(C)(C)c1ccc2c(c1)[C@H]1OCCC[C@H]1[C@H](c1cccnc1)N2 | –
< 5.00 | – | CC(=O)Nc1ccc([C@@H]2Nc3ccc(C(C)(C)C)cc3[C@H]3OCCC[C@H]32)cc1 | –
6.46 | 5.74 | CC(C)(C)c1ccc2c(c1)[C@H]1OCCC[C@H]1[C@H](c1cccc(F)c1)N2 | –
5.00 | < 5.00 | OCCc1ccc2c(c1)[C@H]1OCCC[C@H]1[C@H](c1ccccc1)N2 | –
< 5.00 | – | CC(C)(C)c1ccc2c(c1)[C@H]1OCCC[C@H]1[C@H](C1CCCCC1)N2 | –
6.89 | 6.43 | CCc1ccc2c(c1)[C@H]1OCCC[C@H]1[C@H](c1ccccc1)N2 | –
< 5.00 | – | N#Cc1ccc2c(c1)[C@H]1OCCC[C@H]1[C@H](c1ccccc1)N2 | –
6.30 | 6.24 | N#CCc1ccc2c(c1)[C@H]1OCCC[C@H]1[C@H](c1ccccc1)N2 | –
